Literature values, collected in patent publication US12590059B2, “Process for the production of levetiracetam” (Suzhou BrightHope Pharmatech Co., Ltd, priority 2023, dated 2026).

Settings: stated as known

- solubility in water: about 100 g/100 mL water
Compound: CC[C@@H](C(N)=O)N1CCCC1=O [Levetiracetam]
